Where a name gives a salt, the structure may show the parent alone.
Legend:
mouse TAAR1 = mouse TAAR1 (Mus musculus (Mouse), UniProt Q923Y8); assay: Radioligand binding assay on mouse TAAR1; details: membranes of HEK-293 cells stably expressing mouse TAAR1; first value of cell mouse/rat
Procedure: (§1) Construction of TAAR Expression Plasmids and Stably Transfected Cell Lines
(§2) For the construction of expression plasmids the coding sequences of human, rat and mouse TAAR 1 were amplified from genomic DNA essentially as described by Lindemann et al.. The Expand High Fidelity PCR System (Roche Diagnostics) was used with 1.5 mM Mg^2+ and purified PCR products were cloned into pCR2.1-TOPO cloning vector (Invitrogen) following the instructions of the manufacturer. PCR products were subcloned into the pIRESneo2 vector (BD Clontech, Palo Alto, Calif.), and expression vectors were sequence verified before introduction in cell lines.
(§3) HEK293 cells (ATCC # CRL-1573) were cultured essentially as described by Lindemann et al. (2005). For the generation of stably transfected cell lines HEK293 cells were transfected with the pIRESneo2 expression plasmids containing the TAAR coding sequences (described above) with Lipofectamine 2000 (Invitrogen) according to the instructions of the manufacturer, and 24 hrs post transfection the culture medium was supplemented with 1 mg/ml G418 (Sigma, Buchs, Switzerland). After a culture period of about 10 d clones were isolated, expanded and tested for responsiveness to trace amines (all compounds purchased from Sigma) with the cAMP Biotrak Enzyme immunoassay (EIA) System (Amersham) following the non-acetylation EIA procedure provided by the manufacturer.
Radioligand Binding Assay on Mouse TAAR1
(§4) Membrane Preparation and Radioligand Binding.
HEK-293 cells stably expressing mouse TAAR1 were maintained at 37° C. and 5% CO2 in DMEM high glucose medium, containing fetal calf serum (10%, heat inactivated for 30 min at 56° C.), penicillin/streptomycin (1%), and 375 μg/ml geneticin (Gibco). Cells were released from culture flasks using trypsin/EDTA, harvested, washed twice with ice-cold PBS (without Ca^2+ and Mg^2+), pelleted at 1,000 rpm for 5 min at 4° C., frozen and stored at −80° C. Frozen pellets were suspended in 20 ml HEPES-NaOH (20 mM, pH 7.4) containing 10 mM EDTA and homogenized with a Polytron (PT 6000, Kinematica) at 14,000 rpm for 20 s. The homogenate was centrifuged at 48,000×g for 30 min at 4° C. Subsequently, the supernatant was removed and discarded, and the pellet resuspended in 20 ml HEPES-NaOH (20 mM, pH 7.4) containing 0.1 mM EDTA using the Polytron (20 s at 14,000 rpm). This procedure was repeated and the final pellet resuspended in HEPES-NaOH containing 0.1 mM EDTA and homogenized using the Polytron. Typically, aliquots of 2 ml membrane portions were stored at −80° C. With each new membrane batch the dissociation constant (Kd) was determined via a saturation curve. The TAAR1 radioligand ^3[H]—(S)-4-[(ethyl-phenyl-amino)-methyl]-4,5-dihydro-oxazol-2-ylamine (described in WO 2008/098857) was used at a concentration equal to the calculated Kd value, that was usually around 0.7 nM, resulting in the binding of approximately 0.5% of the radioligand and a specific binding representing approximately 70% of the total binding. Nonspecific binding was defined as the amount of ^3[H]—(S)-4-[(ethyl-phenyl-amino)-methyl]-4,5-dihydro-oxazol-2-ylamine bound in the presence of 10 μM unlabeled ligand. All compounds were tested at a broad range of concentrations ([…]) in duplicates. […] The 96 deep well plates were incubated for 1 hr at 4° C. Incubations were terminated by rapid filtration through Unifilter-96 plates (Packard Instrument Company) and glass filters GF/C (Perkin Elmer) presoaked for 1 hr in polyethylenimine (0.3%) and washed 3 times with 1 ml of cold binding buffer. After addition of 45 μl of Microscint 40 (PerkinElmer) the Unifilter-96 plate was sealed and after 1 hr the radioactivity counted using a TopCount Microplate Scintillation Counter (Packard Instrument Company).

rat TAAR1 = rat TAAR1 (Rattus norvegicus (Rat), UniProt Q923Y9); assay: Radioligand binding assay on rat TAAR1; details: membranes of HEK-293 cells stably expressing rat TAAR1; second value of cell mouse/rat
Procedure: as §1, §2, §3
Radioligand Binding Assay on rat TAAR1
as §4
HEK-293 cells stably expressing rat TAAR1 were maintained at 37° C. and 5% CO2 in DMEM high glucose medium, containing fetal calf serum (10%, heat inactivated for 30 min at 56° C.), penicillin/streptomycin (1%), and 375 μg/ml geneticin (Gibco). Cells were released from culture flasks using trypsin/EDTA, harvested, washed twice with ice-cold PBS (without Ca^2+ and Mg^2+), pelleted at 1,000 rpm for 5 min at 4° C., frozen and stored at −80° C. Frozen pellets were suspended in 20 ml HEPES-NaOH (20 mM, pH 7.4) containing 10 mM EDTA and homogenized with a Polytron (PT 6000, Kinematica) at 14,000 rpm for 20 s. The homogenate was centrifuged at 48,000×g for 30 min at 4° C. Subsequently, the supernatant was removed and discarded, and the pellet resuspended in 20 ml HEPES-NaOH (20 mM, pH 7.4) containing 0.1 mM EDTA using the Polytron (20 s at 14,000 rpm). This procedure was repeated and the final pellet resuspended in HEPES-NaOH containing 0.1 mM EDTA and homogenized using the Polytron. Typically, aliquots of 2 ml membrane portions were stored at −80° C. With each new membrane batch the dissociation constant (Kd) was determined via a saturation curve.
Nonspecific binding was defined as the amount of ^3-[H]-(S)-4-[(ethyl-phenyl-amino)-methyl]-4,5-dihydro-oxazol-2-ylamine bound in the presence of 10 μM unlabeled ligand. All compounds were tested at a broad range of concentrations (10 pM to 10 μM) in duplicates. […] The 96 deep well plates were incubated for 1 hr at 4° C. Incubations were terminated by rapid filtration through Unifilter-96 plates (Packard Instrument Company) and glass filters GF/C (Perkin Elmer) presoaked for 1 hr in polyethylenimine (0.3%) and washed 3 times with 1 ml of cold binding buffer. After addition of 45 μl of Microscint 40 (PerkinElmer) the Unifilter-96 plate was sealed and after 1 hr the ratioactivity counted using a TopCount Microplate Scintillation Counter (Packard Instrument Company).

Chain of mouse TAAR1 (Q923Y8 whole entry): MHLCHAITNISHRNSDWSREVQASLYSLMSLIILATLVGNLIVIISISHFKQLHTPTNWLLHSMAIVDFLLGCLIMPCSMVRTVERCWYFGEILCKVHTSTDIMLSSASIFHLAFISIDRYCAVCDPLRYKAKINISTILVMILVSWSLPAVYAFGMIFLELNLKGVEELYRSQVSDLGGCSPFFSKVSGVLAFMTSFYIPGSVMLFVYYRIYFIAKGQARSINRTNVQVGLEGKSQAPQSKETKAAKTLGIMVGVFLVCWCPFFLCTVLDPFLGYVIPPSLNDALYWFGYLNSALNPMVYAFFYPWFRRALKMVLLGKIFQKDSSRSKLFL
Chain of rat TAAR1 (Q923Y9 whole entry): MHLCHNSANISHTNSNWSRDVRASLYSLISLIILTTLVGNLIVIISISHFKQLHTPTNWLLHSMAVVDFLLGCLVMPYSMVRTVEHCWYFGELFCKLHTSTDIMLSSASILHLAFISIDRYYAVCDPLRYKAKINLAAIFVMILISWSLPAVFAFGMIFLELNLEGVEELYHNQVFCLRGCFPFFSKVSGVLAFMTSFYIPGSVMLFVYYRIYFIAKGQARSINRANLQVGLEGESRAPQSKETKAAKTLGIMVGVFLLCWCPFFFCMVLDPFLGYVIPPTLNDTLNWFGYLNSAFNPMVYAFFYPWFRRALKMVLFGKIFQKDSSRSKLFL

Compound	Ki (mouse TAAR1)	Ki (rat TAAR1)
COc1cccc(-c2cc(C(=O)Nc3ccc([C@@H]4CNCCO4)cc3)[nH]n2)c1 [Example 16, (R)-3-(3-methoxyphenyl)-N-(4-(morpholin-2-yl)phenyl)-1H-pyrazole-5-carboxamide hydrochloride]	0.0013 µM	0.0014 µM
CCn1nc(-c2cccc(C#N)c2)cc1C(=O)Nc1ccc([C@H]2CNCCO2)cc1 [Example 25, (S)-3-(3-cyanophenyl)-1-ethyl-N-(4-(morpholin-2-yl)phenyl)-1H-pyrazole-5-carboxamide hydrochloride]	0.0051 µM	0.0078 µM
O=C(Nc1ccc([C@H]2CNCCO2)cc1)c1ccn(-c2ccc(OC(F)F)cc2)n1 [Example 45, (S)-1-(4-(Difluoromethoxy)phenyl)-N-(4-(morpholin-2-yl)phenyl)-1H-pyrazole-3-carboxamide hydrochloride]	0.0018 µM	0.0014 µM
O=C(Nc1ccc([C@@H]2CNCCO2)cc1)c1cc(-c2ccc(Cl)cc2)n[nH]1 [Example 12, (R)-3-(4-chlorophenyl)-N-(4-(morpholin-2-yl)phenyl)-1H-pyrazole-5-carboxamide hydrochloride]	0.0005 µM	0.0004 µM
N#Cc1ccc(F)c(-c2cc(C(=O)Nc3ccc([C@H]4CNCCO4)cc3)n[nH]2)c1 [Example 28, (S)-5-(5-cyano-2-fluorophenyl)-N-(4-(morpholin-2-yl)phenyl)-1H-pyrazole-3-carboxamide hydrochloride]	0.0043 µM	0.0129 µM
O=C(Nc1ccc([C@H]2CNCCO2)cc1)c1cc(-c2ccccc2F)n[nH]1 [Example 8, (S)-3-(2-fluorophenyl)-N-(4-(morpholin-2-yl)phenyl)-1H-pyrazole-5-carboxamide hydrochloride]	0.0009 µM	0.0073 µM
O=C(Nc1ccc([C@H]2CNCCO2)cc1)c1ccn(-c2cc(C(F)(F)F)ncn2)n1 [Example 51, (S)—N-(4-(Morpholin-2-yl)phenyl)-1-(6-(trifluoromethyl)pyrimidin-4-yl)-1H-pyrazole-3-carboxamide hydrochloride]	0.0142 µM	0.0071 µM
N#Cc1cccc(-c2cc(C(=O)Nc3ccc([C@@H]4CCCNC4)cc3)[nH]n2)c1 [Example 36, (S)-3-(3-Cyanophenyl)-N-(4-(piperidin-3-yl)phenyl)-1H-pyrazole-5-carboxamide hydrochloride]	0.0014 µM	0.0138 µM
O=C(Nc1ccc([C@H]2CNCCO2)cc1)c1cc(-c2cccc(OC(F)F)c2)n[nH]1 [Example 40, (S)-3-(3-(Difluoromethoxy)phenyl)-N-(4-(morpholin-2-yl)phenyl)-1H-pyrazole-5-carboxamide hydrochloride]	0.0005 µM	0.0013 µM
N#Cc1cnc(-n2ccc(C(=O)Nc3ccc([C@H]4CNCCO4)cc3)n2)cn1 [Example 53, (S)-1-(5-Cyanopyrazin-2-yl)-N-(4-(morpholin-2-yl)phenyl)-1H-pyrazole-3-carboxamide hydrochloride]	0.011 µM	0.0298 µM
COc1cccc(-c2cc(C(=O)Nc3ccc([C@H]4CNCCO4)cc3)n[nH]2)c1 [Example 4, (S)-3-(3-methoxyphenyl)-N-(4-(morpholin-2-yl)phenyl)-1H-pyrazole-5-carboxamide hydrochloride]	0.001 µM	0.0022 µM
CCn1nc(-c2ccc(C#N)cc2)cc1C(=O)Nc1ccc([C@H]2CNCCO2)cc1 [Example 26, (S)-3-(4-cyanophenyl)-1-ethyl-N-(4-(morpholin-2-yl)phenyl)-1H-pyrazole-5-carboxamide hydrochloride]	0.0734 µM	0.0316 µM
Cn1nc(-c2cccc(C#N)c2)cc1C(=O)Nc1ccc([C@H]2CNCCO2)cc1 [Example 24, (S)-3-(3-cyanophenyl)-1-methyl-N-(4-(morpholin-2-yl)phenyl)-1H-pyrazole-5-carboxamide hydrochloride]	0.0067 µM	0.0142 µM
O=C(Nc1ccc([C@@H]2CNCCO2)cc1)c1cc(-c2ccccc2Cl)n[nH]1 [Example 13, (R)-3-(2-chlorophenyl)-N-(4-(morpholin-2-yl)phenyl)-1H-pyrazole-5-carboxamide hydrochloride]	0.0008 µM	0.001 µM
N#Cc1cccc(-c2cc(C(=O)Nc3ccc([C@H]4CCCNC4)cc3)[nH]n2)c1 [Example 37, (R)-3-(3-Cyanophenyl)-N-(4-(piperidin-3-yl)phenyl)-1H-pyrazole-5-carboxamide hydrochloride]	0.0017 µM	0.0027 µM
O=C(Nc1ccc([C@H]2CNCCO2)cc1)c1cc(-c2ccc(Cl)cc2)n[nH]1 [Example 14, (S)-3-(4-chlorophenyl)-N-(4-(morpholin-2-yl)phenyl)-1H-pyrazole-5-carboxamide hydrochloride]	0.0017 µM	0.0028 µM
O=C(Nc1ccc([C@@H]2CNCCO2)cc1)c1ccn(-c2ccc(F)cc2)n1 [Example 31, (R)-1-(4-Fluorophenyl)-N-(4-(morpholin-2-yl)phenyl)-1H-pyrazole-3-carboxamide hydrochloride]	0.0013 µM	0.0024 µM
O=C(Nc1ccc([C@H]2CNCCO2)cc1)c1cc(-c2ccccc2)[nH]n1 [Example 1, (S)—N-(4-(morpholin-2-yl)phenyl)-5-phenyl-1H-pyrazole-3-carboxamide hydrochloride]	0.0007 µM	0.0043 µM
O=C(Nc1ccc([C@H]2CNCCO2)cc1)c1ccn(-c2ccnc(C(F)(F)F)n2)n1 [Example 54, (S)—N-(4-(Morpholin-2-yl)phenyl)-1-(2-(trifluoromethyl)pyrimidin-4-yl)-1H-pyrazole-3-carboxamide hydrochloride]	0.0065 µM	0.0088 µM
O=C(Nc1ccc([C@H]2CNCCO2)cc1)c1cc(-c2cccc(Cl)c2)[nH]n1 [Example 2, (S)-3-(3-chlorophenyl)-N-(4-(morpholin-2-yl)phenyl)-1H-pyrazole-5-carboxamide hydrochloride]	0.0003 µM	0.0004 µM
O=C(Nc1ccc([C@H]2CNCCO2)cc1)c1cc(-c2ccc(F)cc2)[nH]n1 [Example 3, (S)-3-(4-fluorophenyl)-N-(4-(morpholin-2-yl)phenyl)-1H-pyrazole-5-carboxamide hydrochloride]	0.0008 µM	0.0027 µM
